Measured values: patent US20220064196A1, “EGFR Inhibitors, Compositions and Methods Thereof” (Betta Pharmaceuticals Co., Ltd., priority 2019, published 2022)
pIC50: −log10 of the molar value. Where a name gives a salt, the structure may show the parent alone. Read-outs that look alike come from different tables or passages of the source.

Assays:
[1] = Pharmacokinetic assay, oral administration; format: in vivo; settings: rat, male SD rats, p.o. 5 mg/kg, plasma, formulation differs per row
Description: Test 5 Pharmacokinetic Assay
Male SD rats, oral administration (intragastric administration), 3 in each group. Animals administered by gavage were fasted overnight before the experiment, and the fasting time was from at least 12 hours before administration to 4 hours after administration. The blood was collected using the orbital vein. Time of blood collection by oral administration: 15 min, 30 min, 1 h, 2 h, 4 h, 7 h, 24 h. The blood collection volume was 300 uL, and after anticoagulation with 2.0% EDTA, the blood was centrifuged at 4000 rpm for 5 min, and the blood plasma was taken for about 100 uL, and placed in −20° C. for examination. The plasma sample was analyzed using liquid chromatography tandem mass spectrometry (LC-MS/MS). Plasma concentration-time data for individual animals were analyzed using WinNonlin (V4.1, Pharsight) software with a non-compartmental model and the pharmacokinetic parameters of the test compounds were calculated.

[2] = molecular target: EGFR L858R/T790M/C797S (Homo sapiens, UniProt P00533, C797S/L858R/T790M); assay: Kinase assay (mobility shift), EGFR L858R/T790M/C797S; format: biochemical; settings: numeric values
EGFR L858R/T790M/C797S, sequence (P00533 25-1210 T790M/C797S/L858R): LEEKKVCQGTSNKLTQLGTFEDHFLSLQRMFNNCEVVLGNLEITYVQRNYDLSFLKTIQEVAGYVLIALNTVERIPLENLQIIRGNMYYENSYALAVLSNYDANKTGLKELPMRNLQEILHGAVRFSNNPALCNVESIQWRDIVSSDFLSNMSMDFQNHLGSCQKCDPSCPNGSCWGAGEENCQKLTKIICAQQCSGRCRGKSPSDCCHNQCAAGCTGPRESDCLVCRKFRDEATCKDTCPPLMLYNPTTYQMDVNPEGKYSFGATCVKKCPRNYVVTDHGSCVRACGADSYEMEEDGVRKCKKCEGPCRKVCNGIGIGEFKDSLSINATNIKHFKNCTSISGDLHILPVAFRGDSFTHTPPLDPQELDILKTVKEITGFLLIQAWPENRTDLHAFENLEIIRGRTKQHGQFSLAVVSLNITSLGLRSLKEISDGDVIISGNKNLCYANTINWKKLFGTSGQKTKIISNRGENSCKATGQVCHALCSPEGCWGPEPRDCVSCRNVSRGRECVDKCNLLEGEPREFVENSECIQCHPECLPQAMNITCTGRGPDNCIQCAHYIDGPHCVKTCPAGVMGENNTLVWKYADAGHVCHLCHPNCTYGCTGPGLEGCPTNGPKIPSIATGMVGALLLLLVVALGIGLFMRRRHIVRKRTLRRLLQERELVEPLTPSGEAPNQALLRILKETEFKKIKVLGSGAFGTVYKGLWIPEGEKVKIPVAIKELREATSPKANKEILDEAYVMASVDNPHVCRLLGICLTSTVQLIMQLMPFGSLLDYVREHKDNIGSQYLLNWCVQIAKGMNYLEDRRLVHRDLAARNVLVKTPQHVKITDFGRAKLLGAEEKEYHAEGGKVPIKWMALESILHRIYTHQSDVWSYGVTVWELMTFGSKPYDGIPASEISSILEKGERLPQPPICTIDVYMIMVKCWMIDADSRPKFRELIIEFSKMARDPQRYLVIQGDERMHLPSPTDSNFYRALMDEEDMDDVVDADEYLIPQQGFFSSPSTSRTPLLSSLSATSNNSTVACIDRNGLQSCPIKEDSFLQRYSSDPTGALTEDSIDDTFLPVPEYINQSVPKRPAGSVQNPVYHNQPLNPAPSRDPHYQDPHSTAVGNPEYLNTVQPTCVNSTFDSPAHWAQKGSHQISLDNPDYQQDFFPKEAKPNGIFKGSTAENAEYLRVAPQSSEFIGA
Description: [Worded in the source for another variant; this variant is reported under the same test.] Test 1 Kinase Assay for EGFR Del19/T790M/C797S and EGFR Wildtype
Enzyme reaction protocol are as follows:
1. Preparing 1* Kinase buffer as followed.
2. Preparing Compound Concentration Gradient: Compounds were tested at a concentration of 300 nM, diluted to 100-fold final concentration in 100% DMSO solution in 96-well plates, and compounds were diluted 3 times with Precision, 10 concentrations. Each concentration of the compound was then further diluted to a 5-fold final concentration of the intermediate dilution solution using 1* Kinase buffer.
3.5 μL of each of the prepared intermediate dilution compounds was separately added to the compound wells of the 384-well plate, and each concentration was tested for duplicate wells; 5 μL of 5% DMSO was added to the negative control wells and the positive control wells, respectively.
4. 2.5-fold final concentration of the kinase solution was prepared using 1*Kinase buffer.
5. Add 10 μL of 2.5-fold final concentration of kinase solution to the compound well and positive control well; add 10 μL of 1*Kinase buffer to the negative control well.
6. Centrifuge at 1000 rpm for 30 seconds, shake the reaction plate and incubate for 10 minutes at room temperature.
7. A mixed solution of 2.5 times the final concentration of ATP and Kinase substrate (5-FAM-EEPLYWSFPAKKK-CONH2) was prepared using 1*Kinase buffer.
8. 10 μL of a 2.5-fold final concentration of a mixed solution of ATP and a substrate was added to initiate the reaction.
9. Centrifuge the 384-well plate at 1000 rpm for 30 seconds, mix by shaking, and incubate at room temperature for the corresponding time.
10. Add 30 μL of the stop solution to stop the kinase reaction, centrifuge at 1000 rpm for 30 seconds, and mix by shaking.
11. Read the conversion rate with Caliper EZ Reader.
Convert conversion values to inhibition values:
Percent inhibition 32 (max-conversion)/(max-min)*100.
“max” stands for the mean value of the positive control well ratio; “min” stands for the mean value of the negative control well.
Fit the data in log(inhibitor) vs. response Variable slope of GraphPad Prism 5 to obtain IC50 values.
Equation used is: Y=Bottom+(Top-Bottom)/(1+(IC50/X)^HillSlope)

[3] = molecular target: Ba/F3-Del19/T790M/C797S (Homo sapiens, UniProt P00533, T790M/C797S, cells depend on it, form not given); assay: Ba/F3-Del19/T790M/C797S cells proliferation assay (CellTiter Glo); format: cell-based; settings: cell proliferation, 72 h, read-out: Ba/F3-Del19/T790M/C797S IC50
Ba/F3-Del19/T790M/C797S, sequence (P00533 with tags, fused parts or gaps DEL746-750/T790M/C797S, form open): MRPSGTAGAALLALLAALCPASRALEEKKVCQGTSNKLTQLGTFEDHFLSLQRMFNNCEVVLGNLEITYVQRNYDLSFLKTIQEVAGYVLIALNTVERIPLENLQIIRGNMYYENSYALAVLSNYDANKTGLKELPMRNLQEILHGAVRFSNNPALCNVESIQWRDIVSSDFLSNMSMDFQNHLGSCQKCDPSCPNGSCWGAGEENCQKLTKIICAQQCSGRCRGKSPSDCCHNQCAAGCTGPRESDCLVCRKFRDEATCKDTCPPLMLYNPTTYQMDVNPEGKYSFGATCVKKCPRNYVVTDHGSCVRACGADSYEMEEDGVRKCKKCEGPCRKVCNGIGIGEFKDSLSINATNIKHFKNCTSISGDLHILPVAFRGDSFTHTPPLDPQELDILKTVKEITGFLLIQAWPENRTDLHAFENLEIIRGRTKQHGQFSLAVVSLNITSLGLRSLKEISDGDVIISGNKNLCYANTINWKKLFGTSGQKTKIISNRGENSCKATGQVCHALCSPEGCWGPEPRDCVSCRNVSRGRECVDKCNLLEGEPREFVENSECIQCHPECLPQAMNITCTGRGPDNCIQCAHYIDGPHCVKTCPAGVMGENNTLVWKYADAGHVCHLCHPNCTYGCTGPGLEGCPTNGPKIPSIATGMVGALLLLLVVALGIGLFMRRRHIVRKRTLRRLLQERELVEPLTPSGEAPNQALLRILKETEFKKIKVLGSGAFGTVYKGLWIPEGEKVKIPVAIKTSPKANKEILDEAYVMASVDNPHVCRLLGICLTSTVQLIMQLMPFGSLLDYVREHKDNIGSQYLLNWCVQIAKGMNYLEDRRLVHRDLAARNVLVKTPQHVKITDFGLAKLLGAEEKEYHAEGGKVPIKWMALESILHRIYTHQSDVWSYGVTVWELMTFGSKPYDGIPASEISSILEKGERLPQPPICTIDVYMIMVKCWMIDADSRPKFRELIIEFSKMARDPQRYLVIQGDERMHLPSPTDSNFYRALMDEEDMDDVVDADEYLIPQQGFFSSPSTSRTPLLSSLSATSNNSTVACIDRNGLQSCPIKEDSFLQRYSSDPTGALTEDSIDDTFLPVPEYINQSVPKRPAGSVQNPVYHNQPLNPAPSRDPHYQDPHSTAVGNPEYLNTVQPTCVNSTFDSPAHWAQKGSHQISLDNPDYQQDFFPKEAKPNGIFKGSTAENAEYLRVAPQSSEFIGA
Description: (§1) a) The medium was preheated in a 37°0 C. water bath in advance.
(§2) b) Remove the cryogenic vials from the liquid nitrogen tank, quickly put it into a 37° C. water bath, and completely melt it in 1 min.
(§3) c) Transfer the cell suspension to a 15 mL centrifuge tube containing 8 mL medium, centrifuge 1000 rpm, 5 min.
(§4) d) Discard the supernatant, resuspend the cells in 1 mL medium, and transfer to a 75 cm^2 flask containing 15 mL medium, culture the cells in an incubator at 37° C., 5% CO2.
(§5) a) The medium was preheated in a 37° C. water bath in advance.
(§6) b) Collect cell to a 15 mL centrifuged tube, centrifuge at 1000 rpm for 5 min. Discard the supernatant, count, and make the cell density at 1×10^4 cells/mL, then place it in a 37° C., 5% CO2 incubator.
(§7) a) The test compound (20 mM stock solution) was diluted to 200uM with 100% DMSO as starting concentration then 3-fold serial diluted with “9+0” concentrations. in a 96-well dilution plate (Cat # P-05525, Labcyte);
(§8) b) The above compound solution was diluted 1:20 times with culture medium to prepare a 10 fold working solution;
(§9) a) Take cells in log phase growth, centrifuge at 1000 rpm for 5 min, then resuspend the cells with culture medium, then count cells;
(§10) b) Cells were seeded to 96-well cell culture plate with density at 2000 cells/well;
(§11) a) Compounds prepared at step 2 were added to cell plate with 15 μL per well, the final concentrations were 1000,333, 111.1, 37,12.3, 4.1, 1.4, 0.5, 0.2 and 0 nM, and the final concentration of DMSO was 0.5%. The blank control well was a culture medium (0.5% DMSO);
(§12) b) The cells were incubated for an additional 72 h in the incubator.
(§13) a) Remove the 96-well cell culture plate and add 50 μl of CTG reagent (CellTiter Glo kit, promega, Cat # G7573).
(§14) b) Plate was shaked for 2 min and then let it cool for 10 min at room temperature.
(§15) c) The Luminescence signal value was read using a PerkinElmer reader. Experimental data analysis
(§16) Data were analyzed using GraphPad Prism 6.0 software to obtain a fitted curve of compound activity.
(§17) Fit the Compound IC50 from non-linear regression equation:
(§18) Y=Bottom+(Top-Bottom)/(1+10((LogIC50-X)×Hill Slope));
(§19) X: The log of the concentration of the compound; Y: Luminescence value.
(§20) The cells proliferation assay results are expressed with IC50, shown as Table 2.

[4] = molecular target: Ba/F3-L858R/T790M/C797S (Homo sapiens, UniProt P00533, T790M/C797S/L858R, cells depend on it); assay: Ba/F3-L858R/T790M/C797S cells proliferation assay (CellTiter Glo); format: cell-based; settings: cell proliferation, 72 h, read-out: Ba/F3-L858R/T790M/C797S IC50
Ba/F3-L858R/T790M/C797S, sequence (P00533 whole entry T790M/C797S/L858R): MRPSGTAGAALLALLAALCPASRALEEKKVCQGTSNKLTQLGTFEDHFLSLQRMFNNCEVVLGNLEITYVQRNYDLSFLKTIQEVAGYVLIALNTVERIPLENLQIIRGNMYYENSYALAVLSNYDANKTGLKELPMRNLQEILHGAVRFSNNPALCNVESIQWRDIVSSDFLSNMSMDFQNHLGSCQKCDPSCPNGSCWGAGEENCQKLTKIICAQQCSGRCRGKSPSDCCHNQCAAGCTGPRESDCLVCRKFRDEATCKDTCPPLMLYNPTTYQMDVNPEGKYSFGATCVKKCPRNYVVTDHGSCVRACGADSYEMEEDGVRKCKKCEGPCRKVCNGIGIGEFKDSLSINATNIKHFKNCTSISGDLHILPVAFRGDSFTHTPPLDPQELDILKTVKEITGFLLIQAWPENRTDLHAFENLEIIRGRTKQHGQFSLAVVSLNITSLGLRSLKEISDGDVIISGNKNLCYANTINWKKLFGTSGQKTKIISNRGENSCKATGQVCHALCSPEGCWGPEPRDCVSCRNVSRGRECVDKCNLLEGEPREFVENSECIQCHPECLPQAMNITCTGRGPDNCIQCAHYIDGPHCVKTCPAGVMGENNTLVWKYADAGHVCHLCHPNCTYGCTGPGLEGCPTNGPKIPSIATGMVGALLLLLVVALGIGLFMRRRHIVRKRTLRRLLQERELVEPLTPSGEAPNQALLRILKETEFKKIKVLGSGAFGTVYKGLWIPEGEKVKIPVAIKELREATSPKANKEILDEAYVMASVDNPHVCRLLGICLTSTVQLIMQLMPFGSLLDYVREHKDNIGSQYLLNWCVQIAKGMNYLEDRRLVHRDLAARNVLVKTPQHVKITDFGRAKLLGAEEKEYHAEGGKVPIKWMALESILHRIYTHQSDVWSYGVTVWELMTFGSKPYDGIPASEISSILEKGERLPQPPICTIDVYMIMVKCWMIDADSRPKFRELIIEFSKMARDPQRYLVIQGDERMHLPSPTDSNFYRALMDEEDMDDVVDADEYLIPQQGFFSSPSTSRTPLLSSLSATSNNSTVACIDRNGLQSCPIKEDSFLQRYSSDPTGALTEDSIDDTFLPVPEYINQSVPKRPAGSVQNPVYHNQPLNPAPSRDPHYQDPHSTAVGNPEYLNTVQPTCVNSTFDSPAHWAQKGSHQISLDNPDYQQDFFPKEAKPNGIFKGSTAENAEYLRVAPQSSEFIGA
Description: as §1, §2, §3, §4, §5, §6, §7, §8, §9, §10, §11, §12, §13, §14, §15, §16, §17, §18, §19, §20

SMILES | pIC50 [2] | GI50 ([3]; class symbols) | GI50 ([4]; class symbols) | other results
CCN1CC2(C1)CN(c1ccc(Nc3ncc(Cl)c(Nc4ccccc4P(C)(C)=O)n3)cc1C)C2 [Comparative compound B, (2-((5-chloro-2-((4-(6-ethyl-2,6-diazaspiro[3.3]heptan-2-yl)-3-methylphenyl)amino)pyrimidin-4-yl)amino)phenyl)dimethylphosphine oxide, reference compound] | – | – | – | AUC(0-t) [1]: 202 ng·h/mL; Cmax [1]: 67.2 ng/mL; Tmax [1]: 2.75 h; half-life [1]: 4.09 h
Cc1cc(Nc2ncc(Cl)c(Nc3ccccc3P(C)(C)=O)n2)ccc1N1CC2(CCC(N)CC2)C1 [Example 3, (2-((2-((4-(7-amino-2-azaspiro[3.5]nonan-2-yl)-3-methylphenyl)amino)-5-chloropyrimidin-4-yl)amino)phenyl)dimethylphosphine oxide] | 8.55 | 10 to 50 nM | 10 to 50 nM | –
CN(C)C1CCC2(CC1)CN(c1ccc(Nc3ncc(Cl)c(Nc4ccccc4P(C)(C)=O)n3)cc1C1CC1)C2 [Example 5, (2-((5-chloro-2-((3-cyclopropyl-4-(7-(dimethylamino)-2-azaspiro[3.5]nonan-2-yl)phenyl)amino)pyrimidin-4-yl)amino)phenyl)dimethylphosphine oxide] | 8.82 | 10 to 50 nM | 10 to 50 nM | –
CP(C)(=O)c1ccccc1Nc1nc(Nc2ccc(N3CC4(CCC(N)CC4)C3)c(Cl)c2)ncc1Cl [Example 11, (2-((2-((4-(7-amino-2-azaspiro[3.5]nonan-2-yl)-3-chlorophenyl)amino)-5-chloropyrimidin-4-yl)amino)phenyl)dimethylphosphine oxide] | 8.59 | – | 10 to 50 nM | GI50 ([3]; numeric values): 26.3 nM
CP(C)(=O)c1ccccc1Nc1nc(Nc2ccc(N3CCC4(CC3)CC(N)C4)cc2)ncc1Cl [Example 16, (2-((2-((4-(2-amino-7-azaspiro[3.5]nonan-7-yl)phenyl)amino)-5-chloropyrimidin-4-yl)amino)phenyl)dimethylphosphine oxide hydrochloride] | – | – | – | GI50 ([3]; numeric values): 8 nM; GI50 ([4]; numeric values): 6.9 nM

Now from value to compound, other results behind:

pIC50 [2] | GI50 ([3]; class symbols) | GI50 ([4]; class symbols) | SMILES | other results
7.96 | > 50 nM | > 50 nM | CP(C)(=O)c1ccccc1Nc1ccnc(Nc2ccc(N3CCC4(CC3)CC(N)C4)c(Cl)c2)n1 [Example 9, (2-((2-((4-(2-amino-7-azaspiro[3.5]nonan-7-yl)-3-chlorophenyl)amino)pyrimidin-4-yl)amino)phenyl)dimethylphosphine oxide] | –
7.80 | 10 to 50 nM | 10 to 50 nM | CP(C)(=O)c1ccccc1Nc1nc(Nc2ccc(N3CCC4(CC3)CC(N)C4)c(C(F)(F)F)c2)ncc1Cl [Example 18, (2-((2-((4-(2-amino-7-azaspiro[3.5]nonan-7-yl)-3-(trifluoromethyl)phenyl)amino)-5-chloropyrimidin-4-yl)amino)phenyl)dimethylphosphine oxide] | –
8.64 | 10 to 50 nM | 10 to 50 nM | CNC1CC2(CCN(c3ccc(Nc4ncc(Cl)c(Nc5ccccc5P(C)(C)=O)n4)cc3Cl)CC2)C1 [Example 20, (2-((5-chloro-2-((3-chloro-4-(2-(methylamino)-7-azaspiro[3.5]nonan-7-yl)phenyl)amino)pyrimidin-4-yl)amino)phenyl)dimethylphosphine oxide] | –
